Data published in patent US9920339B2, “Methods, reagents and cells for biosynthesizing compounds” (INVISTA North America S.á r.l., priority 2014, dated 2018).

Columns and labels:
[1] = system: ω-transaminase from Chromobacterium violaceum (SEQ ID NO: 8); conditions: Kaulmann et al., 2007; cited from earlier work
[2] = system: 5-aminovalerate transaminase from Clostridium viride; conditions: Barker et al., 1987; cited from earlier work
[3] = system: 4-aminobubyrate:2-oxoglutarate transaminase from Streptomyces griseus; conditions: Yonaha et al., 1985; cited from earlier work
gene product of ygjG = gene product of ygjG (Escherichia coli, UniProt P42588); conditions: Samsonova et al., 2003; cited from earlier work
[4] = system: Pseudomonas aeruginosa ω-transaminase (SEQ ID NO: 9); experiment: ω-transaminase enzyme activity assay, amine substrate plus pyruvate to L-alanine (cell free extract); assay type: biochemical; conditions: reverse direction, 10 mM substrate, 10 mM pyruvate, 100 μM pyridoxyl 5′ phosphate, pH 7.5, 25° C., 4 h, L-alanine by RP-HPLC
Description: (§1) A nucleotide sequence encoding an N-terminal His-tag was added to the Chromobacterium violaceum, Pseudomonas aeruginosa, Pseudomonas syringae, Rhodobacter sphaeroide, Escherichia coli and Vibrio fluvialis genes encoding the ω-transaminases of SEQ ID NOs: 8-13, respectively (see FIG. 10) such that N-terminal HIS tagged ω-transaminases could be produced. The modified genes were cloned into a pET21a expression vector under the T7 promoter. Each expression vector was transformed into a BL21[DE3] E. coli host. Each resulting recombinant E. coli strain were cultivated at 37° C. in a 250 mL shake flask culture containing 50 mL LB media and antibiotic selection pressure, with shaking at 230 rpm. Each culture was induced overnight at 16° C. using 1 mM IPTG.
(§2) The pellet from each induced shake flask culture was harvested via centrifugation. Each pellet was resuspended and lysed via sonication. The cell debris was separated from the supernatant via centrifugation and the cell free extract was used immediately in enzyme activity assays.
(§3) Enzyme activity assays in the reverse direction (i.e., 5-aminopentanol to 5-oxopentanol) were performed in a buffer composed of a final concentration of 50 mM HEPES buffer (pH=7.5), 10 mM 5-aminopentanol, 10 mM pyruvate, and 100 μM pyridoxyl 5′ phosphate. Each enzyme activity assay reaction was initiated by adding cell free extract of the ω-transaminase gene product or the empty vector control to the assay buffer containing the 5-aminopentanol and then incubated at 25° C. for 4 h, with shaking at 250 rpm. The formation of L-alanine was quantified via RP-HPLC.
as §1, with “and” for “Rhodobacter sphaeroide,”, “coli” for “coli and Vibrio fluvialis”, “8-10 and 12,” for “8-13,”
(§4) Enzyme activity assays in the reverse direction (i.e., cadaverine to 5-aminopentanal) were performed in a buffer composed of a final concentration of 50 mM HEPES buffer (pH=7.5), 10 mM cadaverine, 10 mM pyruvate, and 100 μM pyridoxyl 5′ phosphate. Each enzyme activity assay reaction was initiated by adding cell free extract of the ω-transaminase gene product or the empty vector control to the assay buffer containing the cadaverine and then incubated at 25° C. for 4 h, with shaking at 250 rpm. The formation of L-alanine was quantified via RP-HPLC.
(§5) The activity of the N-terminal His-tagged ω-transaminases of SEQ ID NOs: 8-13 (see Example 3, and FIG. 10) for converting 1-aminopentane to pentanal was assayed using a buffer composed of a final concentration of 50 mM HEPES buffer (pH=7.5), 10 mM 1-aminopentane, 10 mM pyruvate and 100 μM pyridoxyl 5′ phosphate. Each enzyme activity assay reaction was initiated by adding a cell free extract of the ω-transaminase or the empty vector control to the assay buffer containing the 1-aminopentane then incubated at 25° C. for 4 h, with shaking at 250 rpm. The formation of L-alanine was quantified via RP-HPLC.
The activity of the N-terminal His-tagged ω-transaminases of SEQ ID NOs: 8-13 (see Example 3, and FIG. 10) for converting 1-aminoheptane to heptanal was assayed using a buffer composed of a final concentration of 50 mM HEPES buffer (pH=7.5), 10 mM 1-aminoheptane, 10 mM pyruvate and 100 μM pyridoxyl 5′ phosphate. […]

[5] = system: Pseudomonas syringae ω-transaminase (SEQ ID NO: 10); experiment: as above; assay type: biochemical; conditions: reverse direction, 10 mM substrate, 10 mM pyruvate, 100 μM pyridoxyl 5′ phosphate, pH 7.5, 25° C., 4 h, L-alanine by RP-HPLC
Description: as §1, §2, §3
as §1, with “and” for “Rhodobacter sphaeroide,”, “coli” for “coli and Vibrio fluvialis”, “8-10 and 12,” for “8-13,”
as §4
as §5, with “8, 10-13” for “8-13”, “N5-acetyl-1,5-diaminopentane” for “1-aminopentane”, “N5-acetyl-5-aminopentanal” for “pentanal”, “N5-acetyl-1,5-diaminopentane,” for “1-aminopentane,”
(§6) The activity of the N-terminal His-tagged ω-transaminases of SEQ ID NOs: 8-13 (see Example 3, and FIG. 10) for converting 1-aminopentane to pentanal was assayed using a buffer composed of a final concentration of 50 mM HEPES buffer (pH=7.5), 10 mM 1-aminopentane, 10 mM pyruvate and 100 μM pyridoxyl 5′ phosphate. […]

[6] = target: T1, Escherichia coli ω-transaminase (SEQ ID NO: 12) (Escherichia coli, UniProt P42588); experiment: as above; assay type: biochemical; conditions: reverse direction, 10 mM substrate, 10 mM pyruvate, 100 μM pyridoxyl 5′ phosphate, pH 7.5, 25° C., 4 h, L-alanine by RP-HPLC
T1 construct: His-tag (N); made in house; host or cells: E. coli BL21[DE3], pET21a
Description: as §1, §2, §3
as §1, with “and” for “Rhodobacter sphaeroide,”, “coli” for “coli and Vibrio fluvialis”, “8-10 and 12,” for “8-13,”
as §4
as §5, with “8, 10-13” for “8-13”, “N5-acetyl-1,5-diaminopentane” for “1-aminopentane”, “N5-acetyl-5-aminopentanal” for “pentanal”, “N5-acetyl-1,5-diaminopentane,” for “1-aminopentane,”
as §6

[7] = system: Chromobacterium violaceum ω-transaminase (SEQ ID NO: 8); experiment: as above; assay type: biochemical; conditions: reverse direction, 10 mM substrate, 10 mM pyruvate, 100 μM pyridoxyl 5′ phosphate, pH 7.5, 25° C., 4 h, L-alanine by RP-HPLC
Description: A nucleotide sequence encoding an N-terminal His-tag was added to the genes from Chromobacterium violaceum and Rhodobacter sphaeroides encoding the ω-transaminases of SEQ ID NOs: 8 and 10 respectively (see FIG. 10) such that N-terminal HIS tagged ω-transaminases could be produced. Each of the resulting modified genes was cloned into a pET21a expression vector under control of the T7 promoter and each expression vector was transformed into a BL21[DE3] E. coli host. The resulting recombinant E. coli strains were cultivated at 37° C. in a 250 mL shake flask culture containing 50 mL LB media and antibiotic selection pressure, with shaking at 230 rpm. Each culture was induced overnight at 16° C. using 1 mM IPTG.
as §2
Enzyme activity assays in the reverse direction (i.e., 5-aminopentanoate to glutarate semialdehyde) were performed in a buffer composed of a final concentration of 50 mM HEPES buffer (pH=7.5), 10 mM 5-aminopentanoate, 10 mM pyruvate and 100 μM pyridoxyl 5′ phosphate. Each enzyme activity assay reaction was initiated by adding cell free extract of the ω-transaminase gene product or the empty vector control to the assay buffer containing the 5-aminopentanoate and incubated at 25° C. for 4 h, with shaking at 250 rpm. The formation of L-alanine from pyruvate was quantified via RP-HPLC.
as §1, §3
as §1, with “and” for “Rhodobacter sphaeroide,”, “coli” for “coli and Vibrio fluvialis”, “8-10 and 12,” for “8-13,”
Enzyme activity assays in the reverse direction (i.e., cadaverine to 5-aminopentanal) were performed in a buffer composed of a final concentration of 50 mM HEPES buffer (pH=7.5), 10 mM cadaverine, 10 mM pyruvate, and 100 μM pyridoxyl 5′ phosphate. […]

[8] = system: diamine transaminase from E. coli strain B; conditions: Kim, 1964; cited from earlier work
[9] = system: Mycobacterium smegmatis carboxylate reductase (SEQ ID NO: 3), enhanced by the gene product of sfp; experiment: carboxylate reductase enzyme activity assay, NADPH consumption at 340 nm; assay type: biochemical; conditions: SEQ ID NO 3 with sfp; 2 mM substrate, 10 mM MgCl2, 1 mM ATP, 1 mM NADPH, pH 7.5, room temperature, 20 min; absorbance at 340 nm
Description: (§7) A nucleotide sequence encoding a His-tag was added to the genes from Mycobacterium marinum, Mycobacterium smegmatis, Segniliparus rugosus, Mycobacterium massiliense, and Segniliparus rotundus that encode the carboxylate reductases of SEQ ID NOs: 2-4, 6 and 7, respectively (GenBank Accession Nos. ACC40567.1, ABK71854.1, EFV11917.1, EIV11143.1, and ADG98140.1, respectively) (see FIG. 10) such that N-terminal HIS tagged carboxylate reductases could be produced. Each of the modified genes was cloned into a pET Duet expression vector alongside a sfp gene encoding a His-tagged phosphopantetheine transferase from Bacillus subtilis, both under control of the T7 promoter. Each expression vector was transformed into a BL21[DE3] E. coli host along with the expression vectors from Example 3. Each resulting recombinant E. coli strain was cultivated at 37° C. in a 250 mL shake flask culture containing 50 mL LB media and antibiotic selection pressure, with shaking at 230 rpm. Each culture was induced overnight at 37° C. using an auto-induction media.
(§8) The pellet from each induced shake flask culture was harvested via centrifugation. Each pellet was resuspended and lysed via sonication. The cell debris was separated from the supernatant via centrifugation. The carboxylate reductases and phosphopantetheine transferase were purified from the supernatant using Ni-affinity chromatography, diluted 10-fold into 50 mM HEPES buffer (pH=7.5) and concentrated via ultrafiltration.
(§9) Enzyme activity (i.e., 5-hydroxypentanoate to 5-hydroxypentanal) assays were performed in triplicate in a buffer composed of a final concentration of 50 mM HEPES buffer (pH=7.5), 2 mM 5-hydroxypentanal, 10 mM MgCl2, 1 mM ATP, and 1 mM NADPH. Each enzyme activity assay reaction was initiated by adding purified carboxylate reductase and phosphopantetheine transferase or the empty vector control to the assay buffer containing the 5-hydroxypentanoate and then incubated at room temperature for 20 min. The consumption of NADPH was monitored by absorbance at 340 nm.
(§10) The N-terminal His-tagged carboxylate reductase of SEQ ID NO 2-4 and 7 (see Example 2 and FIG. 10) was assayed using glutarate methyl ester as substrate. The enzyme activity assay was performed in triplicate in a buffer composed of a final concentration of 50 mM HEPES buffer (pH=7.5), 2 mM glutarate methyl ester, 10 mM MgCl2, 1 mM ATP and 1 mM NADPH. The enzyme activity assay reaction was initiated by adding purified carboxylate reductase and phosphopantetheine transferase or the empty vector control to the assay buffer containing the glutarate semialdehyde and then incubated at room temperature for 20 min. The consumption of NADPH was monitored by absorbance at 340 nm.

[10] = system: Segniliparus rugosus carboxylate reductase (SEQ ID NO: 4), enhanced by the gene product of sfp; experiment: as above; assay type: biochemical; conditions: SEQ ID NO 4 with sfp; 2 mM substrate, 10 mM MgCl2, 1 mM ATP, 1 mM NADPH, pH 7.5, room temperature, 20 min; absorbance at 340 nm
Description: as §7, §8, §9, §10

[11] = target: T2, Mycobacterium marinum carboxylate reductase (SEQ ID NO: 2), enhanced by the gene product of sfp (Mycobacterium marinum, UniProt B2HN69); experiment: as above; assay type: biochemical; conditions: SEQ ID NO 2 with sfp; 2 mM substrate, 10 mM MgCl2, 1 mM ATP, 1 mM NADPH, pH 7.5, room temperature, 20 min; absorbance at 340 nm
T2 construct: His-tag (N); made in house; host or cells: E. coli BL21[DE3], pET Duet
Description: as §7, §8, §9, §10

[12] = system: Segniliparus rotundus carboxylate reductase (SEQ ID NO: 7), enhanced by the gene product of sfp; experiment: as above; assay type: biochemical; conditions: SEQ ID NO 7 with sfp; 2 mM substrate, 10 mM MgCl2, 1 mM ATP, 1 mM NADPH, pH 7.5, room temperature, 20 min; absorbance at 340 nm
Description: as §7
The pellet from each induced shake flask culture was harvested via centrifugation. Each pellet was resuspended and lysed via sonication. The cell debris was separated from the supernatant via centrifugation. […]
Enzyme activity (i.e., 5-hydroxypentanoate to 5-hydroxypentanal) assays were performed in triplicate in a buffer composed of a final concentration of 50 mM HEPES buffer (pH=7.5), 2 mM 5-hydroxypentanal, 10 mM MgCl2, 1 mM ATP, and 1 mM NADPH. […] The consumption of NADPH was monitored by absorbance at 340 nm.
The N-terminal His-tagged carboxylate reductase of SEQ ID NO 7 (see Example 2 and FIG. 10) was assayed using glutarate semialdehyde as substrate. […] The consumption of NADPH was monitored by absorbance at 340 nm.
The N-terminal His-tagged carboxylate reductase of SEQ ID NO 2-4 and 7 (see Example 2 and FIG. 10) was assayed using glutarate methyl ester as substrate. […] The consumption of NADPH was monitored by absorbance at 340 nm.

T2 sequence (B2HN69 whole entry): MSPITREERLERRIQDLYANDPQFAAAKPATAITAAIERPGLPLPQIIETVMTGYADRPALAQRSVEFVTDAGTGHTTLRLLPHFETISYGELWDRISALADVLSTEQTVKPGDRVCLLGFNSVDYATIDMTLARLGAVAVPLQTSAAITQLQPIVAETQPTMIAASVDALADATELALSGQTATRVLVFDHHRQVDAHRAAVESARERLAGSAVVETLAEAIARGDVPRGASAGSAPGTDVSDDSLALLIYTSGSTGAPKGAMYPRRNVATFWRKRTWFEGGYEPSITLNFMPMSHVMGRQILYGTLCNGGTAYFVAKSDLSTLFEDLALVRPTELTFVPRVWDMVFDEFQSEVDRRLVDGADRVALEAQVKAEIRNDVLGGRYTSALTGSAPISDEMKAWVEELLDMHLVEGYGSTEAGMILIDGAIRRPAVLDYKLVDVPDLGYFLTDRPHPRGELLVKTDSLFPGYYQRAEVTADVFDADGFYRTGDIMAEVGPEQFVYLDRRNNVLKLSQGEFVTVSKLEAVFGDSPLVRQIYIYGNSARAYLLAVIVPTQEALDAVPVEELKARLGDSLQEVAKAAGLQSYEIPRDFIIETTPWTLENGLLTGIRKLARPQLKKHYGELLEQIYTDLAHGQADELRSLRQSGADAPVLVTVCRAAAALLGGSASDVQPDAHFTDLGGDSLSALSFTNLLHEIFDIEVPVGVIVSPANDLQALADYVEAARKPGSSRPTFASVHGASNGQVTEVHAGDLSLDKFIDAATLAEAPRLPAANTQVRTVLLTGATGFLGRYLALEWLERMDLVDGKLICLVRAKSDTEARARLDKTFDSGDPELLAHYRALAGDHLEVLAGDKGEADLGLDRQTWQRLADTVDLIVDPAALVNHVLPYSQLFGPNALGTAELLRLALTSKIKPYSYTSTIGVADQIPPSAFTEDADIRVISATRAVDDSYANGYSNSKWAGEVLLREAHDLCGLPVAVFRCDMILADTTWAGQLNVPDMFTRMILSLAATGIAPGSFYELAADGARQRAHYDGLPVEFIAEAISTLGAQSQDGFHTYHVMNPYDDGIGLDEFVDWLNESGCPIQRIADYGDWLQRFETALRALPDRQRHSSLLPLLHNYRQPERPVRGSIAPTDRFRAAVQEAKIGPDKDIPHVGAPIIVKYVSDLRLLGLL
T1 sequence (P42588 whole entry): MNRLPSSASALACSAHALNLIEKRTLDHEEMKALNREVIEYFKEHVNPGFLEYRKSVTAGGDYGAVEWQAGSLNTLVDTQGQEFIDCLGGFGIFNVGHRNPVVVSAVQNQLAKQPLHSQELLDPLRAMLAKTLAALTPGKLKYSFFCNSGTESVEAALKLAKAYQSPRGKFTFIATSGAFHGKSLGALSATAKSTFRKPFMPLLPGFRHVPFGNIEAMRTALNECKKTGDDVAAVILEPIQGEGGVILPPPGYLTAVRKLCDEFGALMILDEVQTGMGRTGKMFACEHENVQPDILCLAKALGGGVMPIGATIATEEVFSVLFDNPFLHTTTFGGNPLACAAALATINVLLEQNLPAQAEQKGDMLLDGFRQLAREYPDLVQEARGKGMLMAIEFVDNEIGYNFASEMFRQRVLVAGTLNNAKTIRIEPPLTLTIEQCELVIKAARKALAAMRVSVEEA
Sequence of gene product of ygjG (P42588 whole entry): as above

## NCCCCCC(=O)O [6-aminohexanoate]
[1]
  accepted as amino donor: demonstrated analogous activity
[2]
  activity for the conversion to adipate semialdehyde: demonstrated analogous activity
[3]
  activity for the conversion to adipate semialdehyde: demonstrated analogous activity

## NCCCCCN [cadaverine]
Gene product of ygjG
  accepted as diamine substrate: accepts
[4]
  accepted as substrate as confirmed against the empty vector control: accepted
[5]
  accepted as substrate as confirmed against the empty vector control: accepted
[6]
  accepted as substrate as confirmed against the empty vector control: accepted
[7]
  accepted as substrate as confirmed against the empty vector control: accepted
[8]
  activity for the substrate: demonstrated activity

## COC(=O)CCCC(=O)O [glutarate methyl ester]
[9]
  accepted as substrate as confirmed against the empty vector control: accepted
[10]
  accepted as substrate as confirmed against the empty vector control: accepted
[11]
  accepted as substrate as confirmed against the empty vector control: accepted
[12]
  accepted as substrate as confirmed against the empty vector control: accepted
